Laboratory results as given in patent publication US12084436B2, “Heterocyclic compound” (Takeda Pharmaceutical Company Limited, priority 2019, dated 2024).

Target: T1, HDAC6 enzyme (Homo sapiens, UniProt Q9UBN7)
T1 construct: prepared by transducing full length HDAC6 gene into Sf-9 insect cells; GST; purchased SignalChem; host or cells: Sf-9 insect cells
T1 sequence (Q9UBN7 1-1215): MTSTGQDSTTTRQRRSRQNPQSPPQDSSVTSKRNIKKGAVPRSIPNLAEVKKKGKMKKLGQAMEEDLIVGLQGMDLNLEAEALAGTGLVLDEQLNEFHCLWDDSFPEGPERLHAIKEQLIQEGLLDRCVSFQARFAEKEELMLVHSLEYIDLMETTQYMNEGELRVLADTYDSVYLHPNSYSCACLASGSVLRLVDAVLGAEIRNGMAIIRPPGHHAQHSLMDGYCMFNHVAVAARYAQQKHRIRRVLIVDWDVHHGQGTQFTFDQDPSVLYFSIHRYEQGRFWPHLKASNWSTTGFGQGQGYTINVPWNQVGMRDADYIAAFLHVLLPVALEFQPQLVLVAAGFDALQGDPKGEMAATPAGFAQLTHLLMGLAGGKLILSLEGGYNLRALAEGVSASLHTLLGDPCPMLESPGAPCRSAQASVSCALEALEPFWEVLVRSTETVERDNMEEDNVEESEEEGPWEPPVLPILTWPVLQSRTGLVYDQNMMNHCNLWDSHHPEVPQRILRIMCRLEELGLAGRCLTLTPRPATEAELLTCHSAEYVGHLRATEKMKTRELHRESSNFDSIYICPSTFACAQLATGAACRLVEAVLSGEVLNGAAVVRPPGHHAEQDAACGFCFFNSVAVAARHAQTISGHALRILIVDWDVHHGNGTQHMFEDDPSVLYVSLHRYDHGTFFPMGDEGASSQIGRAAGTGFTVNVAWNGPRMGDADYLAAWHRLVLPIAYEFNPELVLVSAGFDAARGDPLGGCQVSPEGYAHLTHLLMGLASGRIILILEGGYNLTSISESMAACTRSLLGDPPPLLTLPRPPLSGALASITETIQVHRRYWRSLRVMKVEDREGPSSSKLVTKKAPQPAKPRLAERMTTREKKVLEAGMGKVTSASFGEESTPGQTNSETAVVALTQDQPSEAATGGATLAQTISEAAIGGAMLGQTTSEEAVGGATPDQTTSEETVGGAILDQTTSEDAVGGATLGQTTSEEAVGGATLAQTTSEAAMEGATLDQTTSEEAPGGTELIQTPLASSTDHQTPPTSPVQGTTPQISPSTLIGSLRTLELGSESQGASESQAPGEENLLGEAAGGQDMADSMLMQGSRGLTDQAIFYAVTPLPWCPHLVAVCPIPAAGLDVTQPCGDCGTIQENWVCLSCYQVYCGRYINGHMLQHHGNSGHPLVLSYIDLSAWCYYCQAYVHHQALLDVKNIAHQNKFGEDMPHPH
Test: HDAC6 enzyme inhibitory assay (HDAC-Glo I/II Assay kit, luminescence)
Type: biochemical
Details: 10 μM test compound; wells without enzyme = 100% inhibition; 10 µM
Protocol: HDAC6 Enzyme Inhibitory Assay
HDAC6 enzyme prepared by transducing full length HDAC6 gene into Sf-9 insect cells and purifying by GST affinity column were purchased from SignalChem. Using this enzyme, HDAC6 enzyme inhibitory activities of the compound of the present invention were evaluated. Enzymes were used after preserved at −70° C. HDAC6 enzyme inhibitory activity of the compound of the present invention was measured using HDAC-Glo™ I/II Assay kit (Promega) according to the following experimental method. The test compound diluted with assay buffer (24 mM Tris-HCl (pH 7.5), 1 mM MgCl2, 0.35 mM KCl, 135 mM NaCl, 0.6 mM Glutathione, 0.01% Tween-20) was added to a 384-well plate by each 2 μL. Then, HDAC6 enzyme solution diluted with assay buffer was added thereto by each 4 μL, and the plate was incubated at room temperature for 60 min. After incubated, HDAC substrate-Developer solution prepared according to Promega protocol attached to the assay kit was added to the 384-well plate by each 2 μL, and the enzyme reaction was started. After reacting at room temperature for 20 min, luminescence level was measured using plate reader Envision (PerkinElmer). The inhibitory activity of each compound of Example was calculated as a relative activity value when luminescence level in wells without enzyme is considered as 100% inhibition.

Row | Compound | HDAC6 inhibitory rate (%) (10 μM)
1 | CN1C(=O)c2cc(-c3nnc(C(F)F)o3)cnc2CC1(C)c1ccc(F)c(F)c1 (single isomer, unassigned; isomer 2) [Example 40b, 3-[5-(difluoromethyl)-1,3,4-oxadiazol-2-yl]-7-(3,4-difluorophenyl)-6,7-dimethyl-7,8-dihydro-1,6-naphthyridin-5(6H)-one (optical isomer 2)] | 100
2 | CN1C(=O)c2cc(-c3nnc(C(F)F)o3)ccc2OC1(C)c1ccc(C#N)cc1 (single isomer, unassigned; isomer 2) [Example 37b, 4-{6-[5-(difluoromethyl)-1,3,4-oxadiazol-2-yl]-2,3-dimethyl-4-oxo-3,4-dihydro-2H-1,3-benzoxazin-2-yl}benzonitrile (optical isomer 2)] | 100

Same assay, conditions: 10 μM test compound; wells without enzyme = 100% inhibition; read-out: HDAC6 inhibitory rate (%) (10 μM)

Row | Compound | inhibition at 10 µM [%]
3 | CC(C)(C)OC(=O)N1CCC(Oc2cccnc2-c2cc(F)cc(-c3nnc(C(F)F)o3)c2)CC1 [Example 16a, tert-butyl 4-[(2-{3-[5-(difluoromethyl)-1,3,4-oxadiazol-2-yl]-5-fluorophenyl}pyridin-3-yl)oxy]piperidine-1-carboxylate] | 98
4 | CN(Cc1ccc(C(F)F)cc1)N1Cc2ccc(-c3nnc(C(F)F)o3)cc2C1=O [Example 57c, 6-[5-(difluoromethyl)-1,3,4-oxadiazol-2-yl]-2-[{[4-(difluoromethyl)phenyl]methyl} (methyl)amino]-2,3-dihydro-1H-isoindol-1-one] | 99
5 | FC(F)c1nnc(-c2cncc(-c3nccn3Cc3ccccc3)c2)o1 [Example 37a, 3-(1-benzyl-1H-imidazol-2-yl)-5-[5-(difluoromethyl)-1,3,4-oxadiazol-2-yl]pyridine] | 99
6 | CC(C)(C)OC(=O)N1CCCC1COc1cccnc1-c1cc(F)cc(-c2nnc(C(F)F)o2)c1 (centres unmarked) [Example 17a] | 96
7 | CN1C(=O)c2cc(-c3nnc(C(F)F)o3)ccc2OC1(C)c1ccc(OC(F)(F)F)cc1 (centres unmarked) [Example 21b, 6-[5-(difluoromethyl)-1,3,4-oxadiazol-2-yl]-2,3-dimethyl-2-[4-(trifluoromethoxy)phenyl]-2,3-dihydro-4H-1,3-benzoxazin-4-one] | 99
8 | Fc1cc(-c2nnc(C(F)F)o2)cc(-c2ncccc2OC2CCOCC2)c1 [Example 8a, 2-{3-[5-(difluoromethyl)-1,3,4-oxadiazol-2-yl]-5-fluorophenyl}-3-[(oxan-4-yl)oxy]pyridine] | 98
9 | CCN1C(=O)c2cc(-c3nnc(C(F)F)o3)ccc2OC1(C)c1ccc(F)cc1 (centres unmarked) [Example 45b, 6-[5-(difluoromethyl)-1,3,4-oxadiazol-2-yl]-3-ethyl-2-(4-fluorophenyl)-2-methyl-2,3-dihydro-4H-1,3-benzoxazin-4-one] | 100
10 | Fc1cccc(Cn2ccnc2-c2cc(-c3nnc(C(F)F)o3)ccn2)c1 [Example 71a, 4-[5-(difluoromethyl)-1,3,4-oxadiazol-2-yl]-2-{1-[(3-fluorophenyl)methyl]-1H-imidazol-2-yl}pyridine] | 100
11 | N#Cc1ccnc(Cn2ccnc2-c2cc(-c3nnc(C(F)F)o3)ccn2)c1 [Example 95a, 2-[(2-{4-[5-(difluoromethyl)-1,3,4-oxadiazol-2-yl]pyridin-2-yl}-1H-imidazol-1-yl)methyl]pyridine-4-carbonitrile] | 100
12 | O=C1NN(C2CCCCC2)Cc2ccc(-c3nnc(C(F)F)o3)cc21 [Example 11b, 3-cyclohexyl-7-[5-(difluoromethyl)-1,3,4-oxadiazol-2-yl]-3,4-dihydrophthalazin-1(2H)-one] | 99
13 | CCN(Cc1ccccc1)N1Cc2ccc(-c3nnc(C(F)F)o3)cc2C1=O [Example 8c, 2-[benzyl (ethyl)amino]-6-[5-(difluoromethyl)-1,3,4-oxadiazol-2-yl]-2,3-dihydro-1H-isoindol-1-one] | 95
14 | CN(CCOCc1ccccc1)N1Cc2ccc(-c3nnc(C(F)F)o3)cc2C1=O [Example 48c, 2-{[2-(benzyloxy)ethyl](methyl)amino}-6-[5-(difluoromethyl)-1,3,4-oxadiazol-2-yl]-2,3-dihydro-1H-isoindol-1-one] | 99
15 | Cc1noc(Cn2ccnc2-c2cc(F)cc(-c3nnc(C(F)F)o3)c2)n1 [Example 56a, 5-[(2-{3-[5-(difluoromethyl)-1,3,4-oxadiazol-2-yl]-5-fluorophenyl}-1H-imidazol-1-yl)methyl]-3-methyl-1,2,4-oxadiazole] | 99
16 | Fc1cc(-c2nnc(C(F)F)o2)cc(-c2nccn2Cc2ccccn2)c1 [Example 6a] | 99
17 | CN(Cc1ccccc1C(F)F)N1Cc2ccc(-c3nnc(C(F)F)o3)cc2C1=O [Example 65c, 6-[5-(difluoromethyl)-1,3,4-oxadiazol-2-yl]-2-[{[2-(difluoromethyl)phenyl]methyl} (methyl)amino]-2,3-dihydro-1H-isoindol-1-one] | 101
18 | Fc1cc(-c2nnc(C(F)F)o2)cc(-c2nccn2CC2CCOCC2)c1 [Example 30a, 2-(difluoromethyl)-5-(3-fluoro-5-{1-[(oxan-4-yl)methyl]-1H-imidazol-2-yl}phenyl)-1,3,4-oxadiazole] | 98
19 | COCCn1ccnc1-c1cc(F)cc(-c2nnc(C(F)F)o2)c1 [Example 27a] | 95
20 | CN(Cc1cc(Cl)ccc1O)N1Cc2ccc(-c3nnc(C(F)F)o3)cc2C1=O [Example 42c, 2-{[(5-chloro-2-hydroxyphenyl)methyl](methyl)amino}-6-[5-(difluoromethyl)-1,3,4-oxadiazol-2-yl]-2,3-dihydro-1H-isoindol-1-one] | 98
21 | CCOC(=O)C(C)CN(C)N1Cc2ccc(-c3nnc(C(F)F)o3)cc2C1=O (centres unmarked) [Example 43c, ethyl 3-[{6-[5-(difluoromethyl)-1,3,4-oxadiazol-2-yl]-1-oxo-1,3-dihydro-2H-isoindol-2-yl}(methyl)amino]-2-methylpropanoate] | 94
22 | Cc1nnc(Cn2ccnc2-c2cc(F)cc(-c3nnc(C(F)F)o3)c2)o1 [Example 54a, 2-(difluoromethyl)-5-(3-fluoro-5-{1-[(5-methyl-1,3,4-oxadiazol-2-yl)methyl]-1H-imidazol-2-yl}phenyl)-1,3,4-oxadiazole] | 89
23 | CN(Cc1cc(O)ccc1F)N1Cc2ccc(-c3nnc(C(F)F)o3)cc2C1=O [Example 49c, 6-[5-(difluoromethyl)-1,3,4-oxadiazol-2-yl]-2-{[(2-fluoro-5-hydroxyphenyl)methyl](methyl)amino}-2,3-dihydro-1H-isoindol-1-one] | 100
24 | CN1C(=O)c2cc(-c3nnc(C(F)F)o3)ccc2C[C@@]1(C)c1ccc(F)c(F)c1 [Example 49b, (3S)-7-[5-(difluoromethyl)-1,3,4-oxadiazol-2-yl]-3-(3,4-difluorophenyl)-2,3-dimethyl-3,4-dihydroisoquinolin-1(2H)-one] | 42
25 | O=C1c2cc(-c3nnc(C(F)F)o3)ccc2CN1Nc1ccc(F)cc1 [Example 30c, 6-[5-(difluoromethyl)-1,3,4-oxadiazol-2-yl]-2-(4-fluoroanilino)-2,3-dihydro-1H-isoindol-1-one] | 92
26 | CN(Cc1ccc2nccn2c1)N1Cc2ccc(-c3nnc(C(F)F)o3)cc2C1=O [Example 45c, 6-[5-(difluoromethyl)-1,3,4-oxadiazol-2-yl]-2-{[(imidazo[1,2-a]pyridin-6-yl)methyl](methyl)amino}-2,3-dihydro-1H-isoindol-1-one] | 99
